Reference: ChEMBL document CHEMBL3112417, “Design, synthesis, radiolabeling and in vivo evaluation of potential positron emission tomography (PET) radioligands for brain imaging of the 5-HT₇ receptor” (Bioorg Med Chem, 2014)

How the values were obtained:
[1] = target: T1, Adrenergic receptor alpha-1 (Rattus norvegicus, UniProt P15823+P23944+P43140); assay: Displacement of [3H]-prazosin from rat brain alpha1 adrenergic receptor after 50 mins
T1 sequence (P15823 whole entry): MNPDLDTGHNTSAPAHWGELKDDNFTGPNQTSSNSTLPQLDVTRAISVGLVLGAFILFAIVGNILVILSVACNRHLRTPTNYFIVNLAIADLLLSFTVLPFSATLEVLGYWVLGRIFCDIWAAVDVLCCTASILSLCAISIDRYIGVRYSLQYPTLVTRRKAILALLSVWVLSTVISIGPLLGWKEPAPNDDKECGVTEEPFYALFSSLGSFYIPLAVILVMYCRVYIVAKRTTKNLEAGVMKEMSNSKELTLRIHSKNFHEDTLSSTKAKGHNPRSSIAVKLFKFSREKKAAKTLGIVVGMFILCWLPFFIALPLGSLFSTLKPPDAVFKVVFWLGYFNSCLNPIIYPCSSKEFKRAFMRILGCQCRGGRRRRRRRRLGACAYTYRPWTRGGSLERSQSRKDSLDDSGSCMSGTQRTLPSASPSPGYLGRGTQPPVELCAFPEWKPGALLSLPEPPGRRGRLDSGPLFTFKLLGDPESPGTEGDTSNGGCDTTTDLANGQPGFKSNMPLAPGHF
T1 sequence (P23944 whole entry): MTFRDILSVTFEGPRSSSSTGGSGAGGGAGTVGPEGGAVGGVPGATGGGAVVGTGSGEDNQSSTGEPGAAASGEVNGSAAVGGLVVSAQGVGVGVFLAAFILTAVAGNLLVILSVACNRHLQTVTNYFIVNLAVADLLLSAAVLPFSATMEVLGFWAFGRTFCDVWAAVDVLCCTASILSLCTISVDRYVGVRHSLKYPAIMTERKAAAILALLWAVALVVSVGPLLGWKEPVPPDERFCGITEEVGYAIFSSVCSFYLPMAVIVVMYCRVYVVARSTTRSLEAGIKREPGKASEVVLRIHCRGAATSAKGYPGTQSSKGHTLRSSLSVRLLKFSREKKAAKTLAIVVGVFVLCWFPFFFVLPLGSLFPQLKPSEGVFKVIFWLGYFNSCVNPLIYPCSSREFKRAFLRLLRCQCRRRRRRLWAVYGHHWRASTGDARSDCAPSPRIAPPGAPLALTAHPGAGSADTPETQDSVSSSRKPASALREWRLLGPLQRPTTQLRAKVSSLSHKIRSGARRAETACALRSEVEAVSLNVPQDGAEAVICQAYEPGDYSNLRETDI
T1 sequence (P43140 whole entry): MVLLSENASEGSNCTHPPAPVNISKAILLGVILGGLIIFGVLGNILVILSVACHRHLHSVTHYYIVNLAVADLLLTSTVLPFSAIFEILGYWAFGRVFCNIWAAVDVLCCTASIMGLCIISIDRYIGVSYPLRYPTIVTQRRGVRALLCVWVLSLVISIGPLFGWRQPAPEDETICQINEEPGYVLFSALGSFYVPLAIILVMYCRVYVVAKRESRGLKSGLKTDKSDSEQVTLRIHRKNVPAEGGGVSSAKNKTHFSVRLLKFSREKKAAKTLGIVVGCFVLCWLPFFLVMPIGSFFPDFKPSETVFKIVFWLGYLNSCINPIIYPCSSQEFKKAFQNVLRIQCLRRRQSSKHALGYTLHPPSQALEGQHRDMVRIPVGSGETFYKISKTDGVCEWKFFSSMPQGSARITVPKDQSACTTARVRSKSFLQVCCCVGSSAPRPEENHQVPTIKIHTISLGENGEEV

[2] = target: T2, 5-hydroxytryptamine receptor 1A (Homo sapiens, UniProt P08908); assay: Displacement of [3H]8-OH-DPAT from human 5HT1A receptor transfected in HEK293-EBNA cells after 120 mins; format: cell-based
T2 sequence (P08908 whole entry): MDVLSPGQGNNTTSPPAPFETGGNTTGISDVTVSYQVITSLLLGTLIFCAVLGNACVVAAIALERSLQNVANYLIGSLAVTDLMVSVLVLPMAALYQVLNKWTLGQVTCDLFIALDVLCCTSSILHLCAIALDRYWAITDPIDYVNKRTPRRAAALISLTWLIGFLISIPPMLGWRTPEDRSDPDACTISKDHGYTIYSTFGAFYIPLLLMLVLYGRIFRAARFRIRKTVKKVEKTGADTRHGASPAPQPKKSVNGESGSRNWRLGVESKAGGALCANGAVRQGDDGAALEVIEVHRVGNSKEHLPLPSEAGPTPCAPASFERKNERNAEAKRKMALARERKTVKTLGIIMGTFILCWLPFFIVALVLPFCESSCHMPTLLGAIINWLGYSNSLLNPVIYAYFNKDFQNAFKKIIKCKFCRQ

[3] = target: T3, 5-hydroxytryptamine receptor 7 (Homo sapiens, UniProt P34969); assay: Displacement of [3H]5-CT from human 5HT7 receptor transfected in HEK293 cells after 60 mins; format: cell-based
T3 sequence (P34969 whole entry): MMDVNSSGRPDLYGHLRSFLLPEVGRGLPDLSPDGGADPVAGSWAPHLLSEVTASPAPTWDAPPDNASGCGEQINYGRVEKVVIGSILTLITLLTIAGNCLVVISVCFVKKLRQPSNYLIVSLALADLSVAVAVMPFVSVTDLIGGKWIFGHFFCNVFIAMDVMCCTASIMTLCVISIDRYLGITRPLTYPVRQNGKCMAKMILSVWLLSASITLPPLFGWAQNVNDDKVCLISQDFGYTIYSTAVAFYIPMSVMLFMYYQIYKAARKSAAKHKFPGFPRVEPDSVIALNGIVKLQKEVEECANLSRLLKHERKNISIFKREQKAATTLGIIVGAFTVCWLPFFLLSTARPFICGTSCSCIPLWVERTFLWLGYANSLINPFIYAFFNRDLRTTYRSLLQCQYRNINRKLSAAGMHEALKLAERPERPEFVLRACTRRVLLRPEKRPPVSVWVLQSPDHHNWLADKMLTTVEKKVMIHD

[4] = target: T3, 5-hydroxytryptamine receptor 7; assay: Displacement of [3H]5-CT from human 5HT7 receptor transfected in HEK293 cells after 60 mins by Scatchard plot analysis; format: cell-based
[5] = Drug metabolism in rat liver S9 fraction assessed as compound remaining at 10 uM after 30 mins by RP-HPLC analysis; format: ADME, subcellular; conditions: read-out: Stability
[6] = Efflux ratio of permeability from basolateral to apical side over apical to basolateral side in human Caco2 cells at 10 to 100 uM after 30 to 120 mins; format: ADME, cell-based; conditions: Caco-2
[7] = Drug uptake in Danish Landrace pig brain at 432 +/- 102 MBq, iv administered 90 mins prior to cyclosporine A challenge measured after 30 mins by PET imaging analysis; format: ADME, organism-based, Sus scrofa; conditions: in vivo, 0.5 h
[8] = Drug uptake in Danish Landrace pig brain at 432 +/- 102 MBq, iv after 90 mins by PET imaging analysis; format: ADME, organism-based, Sus scrofa; conditions: in vivo
[9] = system: Sus scrofa; assay: Ratio of drug uptake in Danish Landrace pig brain at 432 +/- 102 MBq, iv in presence of cyclosporine A to drug uptake in Danish Landrace pig brain at 432 +/- 102 MBq, iv after 90 mins; conditions: in vivo
[10] = Drug metabolism in Danish Landrace pig plasma assessed as compound remaining at 432 +/- 102 MBq, iv after 5 mins; format: ADME, organism-based, Sus scrofa; conditions: read-out: Stability
[11] = Drug uptake in Danish Landrace pig brain at 52 to 300 MBq, iv administered 90 mins prior to cyclosporine A challenge measured after 30 mins by PET imaging analysis; format: ADME, organism-based, Sus scrofa; conditions: in vivo, 0.5 h
[12] = Drug uptake in Danish Landrace pig brain at 52 to 300 MBq, iv after 90 mins by PET imaging analysis; format: ADME, organism-based, Sus scrofa; conditions: in vivo

Row | Ki [1] [µM] | Ki [2] [µM] | Ki [3] [µM] | Compound | other results
1 | 0.156 | 0.272 | 0.0452 | COc1ccc(CNC(=O)CCOCCN2CCN(c3ccccc3-c3ccc(F)cc3)CC2)cc1 | –
2 | 0.162 | 0.743 | 0.0334 | COc1ccc(CNC(=O)CCOCCN2CCN(c3ccccc3-c3ccccc3C)CC2)cc1 | –
3 | 0.0513 | 0.433 | 0.0159 | O=C(CCOCCN1CCN(c2ccccc2-c2ccc(F)cc2)CC1)NCc1ccc(F)nc1 | –
4 | > 1 | 0.387 | > 1 | COc1ccccc1-c1cccc(N2CCN(CCOCCC(=O)NCc3ccc(F)nc3)CC2)c1 | –
5 | 0.816 | 0.614 | 0.0261 | COc1ccc(CNC(=O)CCCCCN2CCN(c3ncccc3-c3ccncc3)CC2)cc1 | –
6 | 0.255 | 0.203 | 0.071 | O=C(CCCCCN1CCN(c2ncccc2-c2ccncc2)CC1)NCc1ccc(F)nc1 | –
7 | 0.414 | 0.961 | 0.0667 | O=C(CCCCCN1CCN(c2cccnc2-c2ccncc2)CC1)NCc1ccc(F)nc1 | –
8 | – | – | – | COc1ccc(-c2ccccc2N2CCN(CCCCCC(=O)NCc3ccncc3)CC2)cc1 | Bmax [4]: 2.7 pmol/mg; Kd [4]: 0.00117 µM; remaining at 0.5 h, 10 µM [5]: 76%; efflux ratio at up to 100 µM [6]: 3.33
9 | > 1 | 0.186 | > 1 | COc1ccc(CNC(=O)CCOCCN2CCN(c3cccc(-c4ccccc4OC)c3)CC2)cc1 | –
10 | 0.0133 | – | – | COc1ccc(-c2ccccc2N2CCN(CCCCCC(=O)NCc3ccc(F)nc3)CC2)cc1 | –
11 | 0.386 | 0.568 | 0.0345 | COc1ccc(-c2ccccc2N2CCN(CCOCCC(=O)NCc3ccc(F)nc3)CC2)cc1 | –
12 | 0.365 | 0.875 | 0.0128 | Cc1ccccc1-c1ccccc1N1CCN(CCOCCC(=O)NCc2ccc(F)nc2)CC1 | –
13 | – | – | – | [11CH3]Oc1ccc(-c2ccccc2N2CCN(CCCCCC(=O)NCc3ccncc3)CC2)cc1 | Drug uptake [7]: Active; Drug uptake [8]: Active; Ratio [9]: 3
14 | > 1 | 0.537 | 0.0642 | COc1ccc(CNC(=O)CCCCCN2CCN(c3cccnc3-c3ccncc3)CC2)cc1 | –
15 | – | – | – | COc1ccc(-c2ccccc2N2CCN(CCOCCC(=O)NCc3ccncc3)CC2)cc1 | remaining at 0.5 h, 10 µM [5]: 82%; efflux ratio at up to 100 µM [6]: 4.48
16 | – | – | – | [11CH3]Oc1ccc(-c2ccccc2N2CCN(CCOCCC(=O)NCc3ccncc3)CC2)cc1 | remaining at 5 min [10]: 30%; Drug uptake [11]: Active; Drug uptake [12]: Active
